Two molecules from publication PMC4789278, “Pharmacological inhibition of LSD1 for the treatment of MLL-rearranged leukemia” (Journal of Hematology & Oncology, 2016) can be followed below.

“Also recorded” adds a separate entry of the source. Where two headings read alike, the source gives them in different places.

Series [1] concerns breast cancer MCF-7 cells. The series is described as follows: Antiproliferation assay (MTT), MCF-7. The conditions noted are these: Homo sapiens, MCF7, 360 h, 15-day treatment, read-out: MCF-7 EC50 (antiproliferative). Type of series: cell-based. The procedure:
(§1) These compounds were incubated with a panel of six human leukemia and solid tumor cell lines, including two MLL-rearranged leukemia cells MV4-11 and Molm-13 containing fusion oncogenes MLL-AF4 and -AF9, respectively. […] Also included in the studies are breast cancer MCF-7 and prostate cancer LNCaP cells.
(§2) Proliferation inhibition assay for suspension leukemia cells was performed using an XTT assay kit (Roche) with our previously described method. Proliferation inhibition assay for solid tumor cell lines MCF-7 and LNCaP was performed using our previous described MTT assay. The antiproliferation EC50 values were determined by Prism, and the reported results were the mean values of at least three independent experiments.

In the next series the target is T1, human MAO-A (Homo sapiens, UniProt P21397).
T1 construct: purchased Sigma
T1 sequence (P21397 1-527): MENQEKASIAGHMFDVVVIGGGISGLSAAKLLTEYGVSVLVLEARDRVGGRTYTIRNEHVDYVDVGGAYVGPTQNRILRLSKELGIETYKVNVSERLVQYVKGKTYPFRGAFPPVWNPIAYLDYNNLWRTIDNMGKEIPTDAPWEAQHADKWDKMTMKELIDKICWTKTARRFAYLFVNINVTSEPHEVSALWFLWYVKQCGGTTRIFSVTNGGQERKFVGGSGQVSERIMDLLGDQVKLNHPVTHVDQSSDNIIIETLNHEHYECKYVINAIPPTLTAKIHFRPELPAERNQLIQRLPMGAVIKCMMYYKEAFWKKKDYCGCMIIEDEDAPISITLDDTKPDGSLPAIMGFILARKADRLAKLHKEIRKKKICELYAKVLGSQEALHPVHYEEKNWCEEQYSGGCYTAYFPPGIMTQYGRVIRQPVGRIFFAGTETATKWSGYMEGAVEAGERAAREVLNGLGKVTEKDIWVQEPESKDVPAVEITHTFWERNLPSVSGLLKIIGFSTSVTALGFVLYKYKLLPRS
The series is described as follows: MAO-A inhibition (MAO-Glo). Type of series: biochemical. As to the method: The cyclopropylamine LSD1 inhibitors were generally derived from MAO-A/-B inhibitor tranylcypromine, an antidepression drug. Because MAO-A and -B play important roles in the degradation of neurotransmitters (e.g., serotonin and dopamine) in the central nervous system, selective inhibition for LSD1 is highly desirable.
Recombinant human MAO-A and -B were purchased from Sigma. The inhibitory activity was determined using MAO-Glo assay kit (Promega). In brief, following the manufacturer’s protocol, assays were performed in 384-well white plates (Corning) using MAO-A or -B (100 nM) with a final volume of 20 μL. Reactions were quenched after 60 min by adding reconstituted luciferin detection reagent (20 μL/well); 20 min after addition of the detection reagent, the luminescence of each well was measured using Beckman DTX-880 microplate reader. IC50 calculation was similar to that of LSD1.

The nature of series [2]: Toxicity in mice (weight, blood test). Type of series: in vivo. The source says:
Continuous infusion of 1 using a subcutaneously implanted osmotic pump was used for in vivo studies to avoid the unfavorable pharmacokinetics because this route may provide a stable plasma drug concentration.

In a further series the test system is Molm-13 leukemia cells. The series is described as follows: Antiproliferation assay (XTT), Molm-13. Particulars: Homo sapiens, MOLM-13, 360 h; 15-day treatment; MLL-rearranged leukemia; read-out: Molm-13 EC50 (antiproliferative). In kind it is cell-based. The procedure:
as §1, §2
Background: Tetrazolium assays rely on reduction of a dye to a coloured formazan, in cell work by metabolically active cells.

The next series has as its system MV4-11 leukemia. The series is described as follows: Systemic mouse model of MV4-11 leukemia.
In another series the test system is MV4-11 cells. The series is described as follows: Cell migration assay (transwell). Type of series: cell-based, human. Particulars: treatment for 4 days. The procedure: Importantly, only these stem-like cancer cells can form new tumors when transplanted into a new host, while the other non-stem cancer cells fail to do so. These stem-like cancer cells are more drug resistant and believed to be responsible for tumor metastasis and relapse. […] CD14 and CD11b are two cell surface proteins characteristic to differentiated macrophages/monocytes. […] Similarly, incubation with 2 led to considerably more CD11b^+ cells (Fig. 3b).
Cell migration assay was performed in a 24-well transwell plate with 8-μm polyethylene terephthalate membrane filters (Falcon cell culture insert; Becton-Dickinson) separating the lower from the upper culture chambers, according to the manufacturer’s instructions. […] Triplicate samples of 10^6 cells/well were plated in the upper chamber containing serum-free RPMI-1640. RPMI-1640 supplemented with 10 % FBS in the bottom chamber was used to attract cells to move through the filter. Cells were allowed to incubate at 37 °C for 4 h, after which the cells that had migrated through the pores were harvested in the bottom chamber and counted. Results are presented as means ± s.d.

The next series has as its target T2, recombinant human LSD1 (Homo sapiens, UniProt O60341).
T2 construct: Human LSD1 catalytic domain (172-833) was cloned; made in house; host or cells: E. coli BL21-CodonPlus (Agilent)
The series is described as follows: LSD1 enzyme inhibition assay (HRP/Amplex red). In kind it is biochemical. The procedure: The LSD1 inhibition assay was performed with the reaction rate (i.e., amount of the product H2O2, Additional file 1: Figure S2) being quantitatively determined by adding horseradish peroxidase (HRP) and a HRP fluorescence substrate Amplex red.
Human LSD1 catalytic domain (172-833) was cloned and inserted into pGEX-KG vector. The correctness of insert was verified by sequencing. BL21-CodonPlus strain (Agilent) was transformed with the pGEX-KG-LSD1 plasmid and cultured at 37 °C in LB medium containing ampicillin (50 μg/mL) and chloramphenicol (34 μg/mL). Upon reaching an optical density of ~0.9 at 600 nm, LSD1 expression was induced by adding 0.2 mM isopropylthiogalactoside at 25 °C for 20 h. Cells were harvested, lysed, and centrifuged at 20,000 rpm for 20 min, and the supernatant was collected and subjected to an affinity column chromatography using the glutathione sepharose resin.
The inhibition assay for the recombinant LSD1 was performed using a published protocol, with the reaction rate (i.e., amount of the product H2O2) being quantitatively determined by adding HRP and a HRP fluorescence substrate Amplex red. […] The total volume of the reaction mixture is 60 μL. After 20 min, 60-μL solution containing HRP (0.01 unit) and Amplex red (80 μM) was added and the fluorescence of each well was determined using a Beckman DTX-880 microplate reader (excitation at 535 and emission at 595 nm). Data were imported into Prism 5.0 (GraphPad), and the IC50 values were calculated by using the sigmoidal dose response curve fitting in the software. The reported IC50s were the mean values of at least three independent experiments.

[3] abbreviates: range covers MAO-A and MAO-B, read-out: IC50 against MAO-A and -B (range over both enzymes).

Text for MV4-11 leukemia: A mouse model of systemic MV4-11 leukemia was established by injecting 10^7 MV4-11 cells/mouse intravenously through the tail veil into NOD-SCID mice with an engraftment rate of 100 %. After 2 weeks, human CD33^+/CD45^+ leukemia cells (0.1–0.5 %) can be detected by FACS in blood samples of the mice. The disease progressed rapidly, causing deaths in ~6 weeks after leukemia transplantation. Thus, upon detection of MV4-11 engraftments, mice were randomly separated into treatment and control groups.
NOD-SCID mice (4 to 6 weeks old) were obtained from Jackson lab (Bar Harbor, ME, USA) and maintained under specific pathogen-free conditions; 10^7 MV4-11 cells/mouse were injected intravenously through the tail veil, and animal weights were monitored twice a week. After 2 weeks when the blood samples showing 0.1–0.5 % CD45+/CD33+ human leukemia cells, mice were randomly segregated into control and treatment groups. […] Animals were sacrificed when >20 % weight loss, hunched posture, ruffled fur, or inactivity was observed. The peripheral blood, spleen, and bone marrow cells were isolated and tested for CD45^+/CD33^+ using FACS. Log-rank analysis was used to determine statistical significance of the survival curves using Prism 5.0.

The EC50 is the midpoint of the concentration-response curve. Usually IC50 stands for the concentration needed to halve the response being measured. As to `CN1CCN(C(=O)CNC2CC2c2ccc(OCc3ccccc3)cc2)CC1` (centres unmarked) [Compound 1], the EC50 in series [1] was 1.6 µM. Further, at human MAO-A (setting [3]), the IC50 is 17.5 to 480 µM. The IC50 on human MAO-A (read-out: MAO-A IC50) came out at 17.5 µM. In addition, the “weight losses and visible signs of toxicity” value in series [2] (2.5 and 5 mg/kg/day for 28 days, osmotic pump) is “did not cause weight losses as well as any visible signs of toxicity”. Moreover, the “blood cell counts and hemoglobin vs control” value in series [2] (blood test on day 28) was “no significant differences; also recorded: no significant changes in blood cell counts”. Moreover, the EC50 in the series on Molm-13 leukemia cells came out at 0.096 µM. For the same molecule, in the series with MV4-11 leukemia (2.5 mg/kg/day for 28 days), the “less leukemia cells in the blood” value was found to be 92%, the “less leukemia cells in the spleen” value was 81% and the “reduction of MV4-11 leukemia cells in the bone marrow” value was found to be 80%. For the same molecule, the “human CD33+/CD45+ leukemia cells in the bone marrow (average)” value in the series on MV4-11 leukemia (2.5 mg/kg/day for 28 days, control 33.6 %) worked out at 6.7%. Besides, in the series with MV4-11 leukemia (2.5 mg/kg/day for 28 days, control 34.5 days), the median survival is 43 days. Also, the “inhibition of leukemia burdens in the bone marrow, spleen, and peripheral blood” value in the series with MV4-11 leukemia (5 mg/kg) is more than 89%. Also, in the series on MV4-11 leukemia (5 mg/kg/day for 28 days), the “inhibition rate in the blood” value came to 99%, the “inhibition rate in the bone marrow” value came out at 96% and the “inhibition rate in the spleen” value is 89%. The molecule further yielded a median survival with MV4-11 leukemia (5 mg/kg/day for 28 days, control 45 days) of 60 days.

On to `CN1CCN(C(=O)CNC2CC2c2ccc(-c3ccc(F)nc3)cc2)CC1` (centres unmarked) [Compound 2], for which, in the series on MV4-11 cells, the “ability of MV4-11 cells to migrate through a membrane with 8-μm pores” value is recorded as “reduced ability for MV4-11 cells to migrate”. For the same molecule, the IC50 was 17.5 to 480 µM at human MAO-A (setting [3]), 120 µM on human MAO-A (read-out: MAO-A IC50) and 0.077 µM at recombinant human LSD1.
